{"source": "patent US20220119868A1", "about": "“PROFILING RNA-SMALL MOLECULE BINDING SITES WITH OLIGONUCLEOTIDES” (priority 2018, published 2022)", "system": "SL I site of HCV RNA in replicon cells", "assay": "Oligonucleotide profiling of target engagement in cells by RT-qPCR", "assay_type": "cell-based, Hepatitis C virus", "from_the_text": "Given these favorable results in vitro, the competitive cleaving approach was used to map cellular ligand binding sites. […] Previous approaches to map small molecule-RNA binding sites, such as Chemical Cross-Linking and Isolation by Pull-down (Chem-CLIP)59-61 and Small Molecule Nucleic Acid Profiling by Cleavage Applied to RNA (Ribo-SNAP)61, require the synthesis of derivatives of the lead molecules that allow them to cross-link or cleave and RNA target, respectively. […] Guan, L. and Disney, M. D. (2012). Recent advances in developing small molecules targeting RNA. ACS Chem. Biol. 7, 73-86. • 2. Thomas, J. R. and Hergenrother, P. J. (2008). Targeting RNA with small molecules. Chem. Rev. 108, 1171-1224. • 3. Blount, K. F. and Breaker, R. R. (2006). Riboswitches as antibacterial drug targets. Nat. Biotechnol. 24, 1558-1564. • 4. Tenson, T. and Mankin, A. (2006). Antibiotics and the ribosome. Mol. Microbiol. 59, 1664-1677. • 5. Schlunzen, F., Zarivach, R., Harms, J., Bashan, A., Tocilj, A., Albrecht, R., Yonath, A. and Franceschi, F. (2001). Structural basis for the interaction of antibiotics with the peptidyl transferase centre in eubacteria. Nature 413, 814-821. • 6. Hermann, T. (2016). Small molecules targeting viral rna. Wiley Interdiscip. Rev. RNA 7, 726-743. • 7. Ohgushi, M., Kuroki, S., Fukamachi, H., O'Reilly, L. A., Kuida, K., Strasser, A. and Yonehara, S. (2005). […]", "data": [{"molecule": "O=C(Nc1ccc(C2=NCCN2)cc1)c1cc(C(=O)Nc2ccc(C3=NCCN3)cc2)cc(C(=O)Nc2ccc(C3=NCCN3)cc2)c1", "note": "[Compound 8]", "values": [{"measurement": "rescue of ASO-induced cleavage in cells", "setting": "Control ASO complementary to a downstream site", "value": "does not rescue cleavage"}, {"measurement": "inhibition of ASO-induced cleavage in cells", "setting": "antisense oligonucleotide overlapping the 8-binding site (SL I ASO)", "value": "inhibited cleavage"}]}]}
